The text below walks through data of article PMC9832347 (2023).

The test deals with Probe DNA / complementary DNA (porcine) hybrid (DNA, duplex) CTGATAGTAGATTTGTGATGACCGTAGCCC/CTACGGTCATCACAAATCTACTATCAG
Description: differential pulse voltammetry, redox indicator on DNA electrode. The note with it: 30 μM 2b mixed with complementary DNA 1 × 10^-8 M; buffer wash; peak 1.45 μA; qualitative.

On to `CC1=NCCNC(C)(C)CC(C)=NCCNC(C)(C)C1.[Cu+2]`, for which the binding entry is “yes”.
